Non-standard residues stand in square brackets, D forms with d. Residues, ends and D or L forms follow the SMILES beside them. Aib = CC(C)(N)C(=O)O
Tests used:
Assay in all cases: MTT cytotoxicity assay, 72 hours (Example 13)
Type in all cases: cell-based, human
DU145 (prostate) = test system: DU145 (prostate)
Experimental: (§1) The cytotoxic activity of other synthesized bombesin analogs was tested on eight human tumor cell lines namely HT-29, SW620, PTC (all colon), PA-1 (ovary), A549 (lung), HBL100(breast), MOLT-4 (leukemia) and DU145 (prostate). The tumor cells were collected at exponential growth phase and resuspended in medium (1.5×10^6) cells/ml in RPMI 1640 containing 10% FBS). 150 μl of medium was added to the wells of a 96-well tissue culture plate (Nunc, Denmark) followed by 30 μl of cell suspension. The plate was left in incubator (37° C., 5% CO2 overnight. 20 μl of the peptide (10^−7×10^×10M concentration) was added to marked wells of the 96-well plate. Each concentration was plated in cells served as blanks. A total volume of 200 μl was ensured in each well and plate was left in incubator (37° C., 5% CO2). After 72 hours of incubation an MTT assay was performed and percentage cytotoxicity was calculated with respect to control cells. Following tables show the cytotoxicity achieved on various cell lines at different concentrations.

SW620 (colon) = test system: SW620 (colon)
Experimental: as §1

HBL100 (breast) = conditions: HBL
Experimental: as §1

MOLT-4 (leukemia) = test system: MOLT-4 (leukemia)
Experimental: as §1

HT-29 (colon) = test system: HT-29 (colon)
Experimental: as §1

PTC (colon) = test system: PTC (colon)
Experimental: as §1

PA-1 (ovary) = test system: PA-1 (ovary)
Experimental: as §1

A549 (lung) = test system: A549 (lung)
Experimental: as §1

| SMILES | Percent Cytotoxicity (DU145 (prostate); DU145, 10 nM) | Percent Cytotoxicity (DU145 (prostate); DU145, 100 nM) | Percent Cytotoxicity (SW620 (colon); SW620, 1 nM) | Percent Cytotoxicity (SW620 (colon); SW620, 10 nM) | Percent Cytotoxicity (SW620 (colon); SW620, 100 nM) | Percent Cytotoxicity (SW620 (colon); SW620, 100 PM) | Percent Cytotoxicity (HBL100 (breast); 1 nM) | Percent Cytotoxicity (HBL100 (breast); 10 nM) | Percent Cytotoxicity (HBL100 (breast); 100 nM) | Percent Cytotoxicity (HBL100 (breast); 100 PM) | Percent Cytotoxicity (MOLT-4 (leukemia); MOLT4, 1 nM) | Percent Cytotoxicity (MOLT-4 (leukemia); MOLT4, 10 nM) | Percent Cytotoxicity (MOLT-4 (leukemia); MOLT4, 100 nM) | Percent Cytotoxicity (HT-29 (colon); HT29, 10 nM) | Percent Cytotoxicity (HT-29 (colon); HT29, 100 nM) | Percent Cytotoxicity (PTC (colon); 1 nM) | Percent Cytotoxicity (PTC (colon); 10 nM) | Percent Cytotoxicity (PTC (colon); 100 nM) | Percent Cytotoxicity (PTC (colon); 100 PM) | Percent Cytotoxicity (PA-1 (ovary); PA-1, 1 nM) | further results |
| --- | --- | --- | --- | --- | --- | --- | --- | --- | --- | --- | --- | --- | --- | --- | --- | --- | --- | --- | --- | --- | --- |
| CC(C)C[C@H](NC(=O)[C@H](Cc1c[nH]cn1)NC(=O)CNC(=O)[C@@H](NC(=O)C(C)(C)NC(=O)[C@H](Cc1c[nH]c2ccccc12)NC(=O)[C@H](CCC(N)=O)NC(=O)[C@H](N)Cc1ccccc1)C(C)C)C(N)=O [SEQ ID: 4, D-Phe-Gln-Trp-Aib-Val-Gly-His-Leu-NH2] (H-[dF]QW[Aib]VGHL-NH2; N-terminus assumed) | 23.4 ± 3.3% | 24.9 ± 3.2% | 27.8 ± 2.8% | 23.2 ± 2.0% | 34.3 ± 4.2% | 30.4 ± 3.2% | 30.6 ± 4.2% | 33.2 ± 5.2% | 25.0 ± 3.1% | 33.0 ± 3.6% | 19.3 ± 1.8% | 28.7 ± 4.2% | 16.2 ± 0.6% | 38.9 ± 7.3% | 38.6 ± 5.3% | 8.7 ± 1.5% | 2.1 ± 0.2% | 9.8 ± 1.7% | 14.9 ± 1.1% | 16.2 ± 2.9% | Percent Cytotoxicity (DU145 (prostate); DU145, 1 nM): 22.8 ± 4.1%; Percent Cytotoxicity (DU145 (prostate); DU145, 100 PM): 23.2 ± 3.7%; Percent Cytotoxicity (MOLT-4 (leukemia); MOLT4, 100 PM): 28.5 ± 4.8%; Percent Cytotoxicity (HT-29 (colon); HT29, 1 nM): 39.6 ± 4.3%; Percent Cytotoxicity (HT-29 (colon); HT29, 100 PM): 43.3 ± 4.4%; Percent Cytotoxicity (PA-1 (ovary); PA-1, 10 nM): 4.3 ± 0.2%; Percent Cytotoxicity (PA-1 (ovary); PA-1, 100 nM): 2.3 ± 2.9%; Percent Cytotoxicity (PA-1 (ovary); PA-1, 100 PM): 12.6 ± 2.9%; Percent Cytotoxicity (A549 (lung); A549, 1 nM): 22.7 ± 2.9%; Percent Cytotoxicity (A549 (lung); A549, 10 nM): 20.6 ± 1.9%; Percent Cytotoxicity (A549 (lung); A549, 100 nM): 20.0 ± 2.2%; Percent Cytotoxicity (A549 (lung); A549, 100 PM): 20.7 ± 4.2% |
| CC(C)C[C@H](NC(=O)[C@H](Cc1c[nH]cn1)NC(=O)C(C)(C)NC(=O)[C@@H](NC(=O)[C@H](C)NC(=O)[C@@H](Cc1c[nH]c2ccccc12)NC(=O)[C@H](CCC(N)=O)NC(=O)[C@H](N)Cc1ccccc1)C(C)C)C(N)=O [SEQ ID: 5, D-Phe-Gln-D-Trp-Ala-Val-Aib-His-Leu-NH2] (H-[dF]Q[dW]AV[Aib]HL-NH2; N-terminus assumed) | 22.0 ± 3.4% | 32.3 ± 3.8% | 29.7 ± 4.2% | 30.1 ± 4.0% | 25.6 ± 4.2% | 38.0 ± 3.8% | 31.6 ± 5.3% | 16.7 ± 3.6% | 19.4 ± 4.5% | 19.3 ± 2.7% | 6.4 ± 0.2% | 4.3 ± 0.6% | NIL | 44.4 ± 4.0% | 35.7 ± 2.8% | 23.0 ± 4.2% | 15.9 ± 2.4% | 20.4 ± 4.2% | 13.9 ± 2.2% | 16.0 ± 3.9% | Percent Cytotoxicity (DU145 (prostate); DU145, 1 nM): 10.6 ± 0.9%; Percent Cytotoxicity (DU145 (prostate); DU145, 100 PM): 29.3 ± 2.9%; Percent Cytotoxicity (MOLT-4 (leukemia); MOLT4, 100 PM): 8.7 ± 0.6%; Percent Cytotoxicity (HT-29 (colon); HT29, 1 nM): 27.9 ± 2.9%; Percent Cytotoxicity (HT-29 (colon); HT29, 100 PM): 42.0 ± 2.0%; Percent Cytotoxicity (PA-1 (ovary); PA-1, 10 nM): 20.9 ± 5.3%; Percent Cytotoxicity (PA-1 (ovary); PA-1, 100 nM): 8.8 ± 1.9%; Percent Cytotoxicity (PA-1 (ovary); PA-1, 100 PM): 25.6 ± 6.3%; Percent Cytotoxicity (A549 (lung); A549, 1 nM): 20.2 ± 4.2%; Percent Cytotoxicity (A549 (lung); A549, 10 nM): 22.2 ± 3.1%; Percent Cytotoxicity (A549 (lung); A549, 100 nM): 30.3 ± 4.3%; Percent Cytotoxicity (A549 (lung); A549, 100 PM): 25.2 ± 5.6% |
| CC[C@H](C)[C@H](NC(=O)[C@H](Cc1c[nH]cn1)NC(=O)CNC(=O)[C@@H](NC(=O)C(C)(C)NC(=O)[C@H](Cc1c[nH]c2ccccc12)NC(=O)[C@H](CCC(N)=O)NC(=O)[C@H](N)Cc1ccccc1)C(C)C)C(N)=O [SEQ ID: 6, D-Phe-Gln-Trp-Aib-Val-Gly-His-Ile-NH2] (H-[dF]QW[Aib]VGHI-NH2; N-terminus assumed) | 16.6% | 13.7 ± 0.9% | 33.5 ± 5.2% | 38.1 ± 7.3% | 23.5 ± 5.1% | 24.8 ± 4.2% | 1.2 ± 0.3% | 6.0 ± 0.4% | 17.0 ± 0.5% | NIL | 0.8 ± 0.1% | 20.4 ± 4.3% | NIL | 6.8 ± 0.7% | NIL | 9.1 ± 0.7% | 10.4 ± 0.8% | 24.7 ± 5.2% | 10.1 ± 0.6% | 7.4 ± 1.0% | Percent Cytotoxicity (DU145 (prostate); DU145, 1 nM): 3.9 ± 5.2%; Percent Cytotoxicity (DU145 (prostate); DU145, 100 PM): 12.1 ± 0.8%; Percent Cytotoxicity (MOLT-4 (leukemia); MOLT4, 100 PM): 11.0 ± 0.6%; Percent Cytotoxicity (HT-29 (colon); HT29, 1 nM): 26.7 ± 4.2%; Percent Cytotoxicity (HT-29 (colon); HT29, 100 PM): 16.8 ± 0.5%; Percent Cytotoxicity (PA-1 (ovary); PA-1, 10 nM): 8.7 ± 1.9%; Percent Cytotoxicity (PA-1 (ovary); PA-1, 100 nM): 9.2 ± 1.0%; Percent Cytotoxicity (PA-1 (ovary); PA-1, 100 PM): 11.1 ± 2.9%; Percent Cytotoxicity (A549 (lung); A549, 1 nM): 13.0 ± 0.8%; Percent Cytotoxicity (A549 (lung); A549, 10 nM): 3.2 ± 0.1%; Percent Cytotoxicity (A549 (lung); A549, 100 nM): 1.9 ± 0.6%; Percent Cytotoxicity (A549 (lung); A549, 100 PM): 12.4 ± 0.7% |
| CC[C@H](C)[C@H](NC(=O)[C@H](Cc1c[nH]cn1)NC(=O)C(C)(C)NC(=O)[C@@H](NC(=O)[C@H](C)NC(=O)[C@H](Cc1c[nH]c2ccccc12)NC(=O)[C@H](CCC(N)=O)NC(=O)[C@H](N)Cc1ccccc1)C(C)C)C(N)=O [SEQ ID: 7, D-Phe-Gln-Trp-Ala-Val-Aib-His-Ile-NH2] (H-[dF]QWAV[Aib]HI-NH2; N-terminus assumed) | NIL | NIL | 32.0 ± 5.8% | 20.8 ± 1.9% | 25.4 ± 2.9% | 33.6 ± 5.8% | 12.0 ± 0.7% | 7.0 ± 0.7% | 16.1 ± 3.9% | 4.0 ± 0.6% | NIL | NIL | 13.1 ± 0.3% | 28.2 ± 2.8% | 15.5 ± 1.9% | 12.4 ± 2.1% | 7.6 ± 0.7% | 9.3 ± 1.8% | 8.2 ± 0.9% | 25.6 ± 2.9% | Percent Cytotoxicity (PA-1 (ovary); PA-1, 10 nM): 22.7 ± 3.4%; Percent Cytotoxicity (PA-1 (ovary); PA-1, 100 nM): 9.6 ± 4.1%; Percent Cytotoxicity (PA-1 (ovary); PA-1, 100 PM): 24.5 ± 4.2%; Percent Cytotoxicity (A549 (lung); A549, 10 nM): 17.9 ± 0.9%; Percent Cytotoxicity (A549 (lung); A549, 100 nM): 6.7 ± 2.0% |
| CCCC(CCC)(NC(=O)[C@@H](NC(=O)[C@H](C)NC(=O)[C@@H](Cc1c[nH]c2ccccc12)NC(=O)[C@H](CCC(N)=O)NC(=O)[C@H](N)Cc1ccccc1)C(C)C)C(=O)N[C@@H](Cc1c[nH]cn1)C(=O)N[C@@H](CC(C)C)C(N)=O [SEQ ID: 8, D-Phe-Gln-D-Trp-Ala-Val-Dpg-His-Leu-NH2] | 22.5 ± 2.2% | 19.1 ± 2.1% | 20.6 ± 3.9% | 33.0 ± 3.8% | 29.4 ± 2.9% | 20.6 ± 3.9% | 12.2 ± 1.9% | 14.4 ± 2.1% | 11.9 ± 2.1% | 12.1 ± 1.9% | 9.3 ± 0.2% | 12.8 ± 3.3% | 2.6 ± 0.1% | 18.9 ± 4.2% | 34.8 ± 4.2% | 12.5 ± 1.7% | 5.4 ± 1.7% | 8.7 ± 2.1% | 12.3 ± 1.9% | 23.8 ± 4.2% | Percent Cytotoxicity (DU145 (prostate); DU145, 1 nM): 21.4 ± 6.2%; Percent Cytotoxicity (DU145 (prostate); DU145, 100 PM): 28.1 ± 3.5%; Percent Cytotoxicity (MOLT-4 (leukemia); MOLT4, 100 PM): 16.6 ± 3.1%; Percent Cytotoxicity (HT-29 (colon); HT29, 1 nM): 34.7 ± 3.3%; Percent Cytotoxicity (HT-29 (colon); HT29, 100 PM): 21.4 ± 3.1%; Percent Cytotoxicity (PA-1 (ovary); PA-1, 10 nM): 20.4 ± 3.0%; Percent Cytotoxicity (PA-1 (ovary); PA-1, 100 nM): 10.4 ± 3.7%; Percent Cytotoxicity (PA-1 (ovary); PA-1, 100 PM): 23.3 ± 5.5%; Percent Cytotoxicity (A549 (lung); A549, 1 nM): 19.7 ± 3.1%; Percent Cytotoxicity (A549 (lung); A549, 10 nM): 20.7 ± 2.2%; Percent Cytotoxicity (A549 (lung); A549, 100 nM): 21.7 ± 3.3%; Percent Cytotoxicity (A549 (lung); A549, 100 PM): 17.0 ± 2.7% |

From patent US6989371B1, “Bombesin analogs for treatment of cancer” (Dabur Research Foundation, priority 1996, dated 2006)
